Results from patent EP3501280A1, “COMPOSITION COMPRISING AN AGROCHEMICALLY ACTIVE COMPOUND AND A CARBONATE” (priority 2017, dated 2019).
Converted amounts (≈) assume the structure as drawn.

Tests used:
[1] = tested on: Blumeria graminis f. sp. hordei (type A6); test: Curative leaf-segment test on barley; format: in vivo; details: barley (HORVX), 2 WAT; for Effect [%]: pustules relative to no carbonate
Protocol: (§1) Plants tested: barley (HORVX); cultivation of plants: three plants per pot were cultivated in fine Frustorfer soil for three weeks.
The plants were inoculated with fresh conidia of Blumeria graminis f. sp. hordei (type A6). 24-48h after inoculation with mildew, the plants were treated with the following liquid formulation: fungicidal formulation OPUS® SC 125 (BASF SE; comprising epoxiconazole). The effect of a carbonate (numbering according to Table 1 above) was tested by adding the respective carbonate to the liquid formulation prior to treatment of the plants.
10 hours after treatment with fungicidal formulation, beginning from the stalk, 7 cm leaf segments were cut; the most recent leaf and the second most recent leaf of a plant were used. 15 pieces of said 7 cm leaf segments were collected and put onto benzimidazole-agar (0.5% agar, 40 ppm benzimidazole added after treatment by autoclave. The agar plates (10x10cm) were then incubated at 18°C during night time and at 23°C during day time at 60-70% air moisture in an incubator for a certain time.
The determination of the mildew infestation was carried out by mildew pustules per leaf within 5 cm leaf length. WAT (weeks after treatment) were chosen according to constant impairment observed. Table Ex6b: Dosing of agrochemically active compound with and without component (b) in curative leaf-segment test on barley (HORVX) and the infestation of mildew after WAT

[2] = at 20°C; cited from earlier work
[3] = tested on: Blumeria graminis f. sp. hordei (type A6); test: Protective leaf-segment test on barley; format: in vivo; details: barley (HORVX), 2 WAT; for Effect [%]: infestation relative to no carbonate
Protocol: as §1
The plants were treated with the following SC formulation: fungicidal formulation - 25% by weight azoxystrobin, 16.7% by weight Tamol® NN 2901, 10% by weight propyleneglycol, 48.3% by weight water. The effect of a carbonate (numbering according to Table 1 above) was tested by adding the respective carbonate to the […] formulation prior to treatment of the plants.
10 hours after treatment with fungicidal formulation, beginning from the stalk, 7 cm leaf segments have been cut; the most recent and the second most recent leaf of a plant were used. 15 pieces of said 7 cm leaf segments were collected and put onto benzimidazole-agar (0.5% agar, 40 ppm benzimidazole added after treatment by autoclave).
The leaf segments on the agar plates were inoculated with fresh conidia of Blumeria graminis f. sp. hordei (type A6).
The agar plates (10x10cm) were then incubated at 18°C during night time and 23°C during day time at 60-70% air moisture in an incubator for a certain time.
The determination of the mildew infestation was carried out by determining the surface per leaf within 5 cm leaf length infested with mildew. WAT (weeks after treatment) were chosen according to constant impairment observed.

[4] = Determination of dynamic viscosity (Anton Paar viscosimeter SVM 3000/G2); format: physicochemical; details: dynamic viscosity at 23°C
Protocol: (§2) Determination of boiling point: measured at a pressure below 101.3 kPa; the boiling point measured at this pressure below 101.3 kPa were used to calculate the boiling point at 101.3 kPa by using the following tool: http://www.calctool.org/CALC/chem/substance/boiling. Determination of dynamic viscosity: By using Anton Paar viscosimeter SVM 3000/G2, viscosity was measured at 23°C. Said Anton Paar viscosimeter is a rotational viskosimeter and works according the Stabinger measurement principle.

[5] = Solubility of carbonates in water (OECD guideline 105, flask method); format: physicochemical; details: for Solubility of carbonates in water: OECD 105 flask method
Source text: The water solubility of a substance is the saturation mass concentration of the substance in water at a given temperature. Determination according to OECD guideline for testing of chemicals 105, flask method.

[6] = Determination of boiling point of carbonates; format: physicochemical; details: calculated from boiling point measured at a pressure below 101.3 kPa
Protocol: as §2

[7] = epoxiconazole 10 g/ha (OPUS® SC 125), amount of carbonate 0 g/ha
[8] = azoxystrobin 10 g/ha SC formulation plus carbonate No 1 at 50 g/ha
[9] = epoxiconazole 10 g/ha (OPUS® SC 125) plus carbonate No 1 at 50 g/ha
[10] = azoxystrobin 10 g/ha SC formulation, amount of carbonate 0 g/ha

Fc1ccc([C@]2(Cn3cncn3)O[C@H]2c2ccccc2Cl)cc1 (racemic) [pesticide 4, epoxiconazole, reference compound]
Mildew pustules - average value of 15 leaves [1, 7]: 41.3 | Effect [%] [1, 7]: 100% | Solubility in H2O (data from literature*) [2]: 8.42 mg/l at 20 °C

CCC(=O)OCC1COC(=O)O1 (stereo not shown) [compound 1]
% leaf surface infested with mildew - average value of 15 leaves [3, 8]: 28% | Effect [%] [3, 8]: 72.35% | Viscosity mPa.s at 23°C [4]: 32 mPa.s | Mildew pustules - average value of 15 leaves [1, 9]: 34.7 | Effect [%] [1, 9]: 84% | Solubility of carbonates in water [5]: 54 g carbonate per l water | Boiling point °C at 101.3 kPa [6]: >180 °C

CCCC1COC(=O)O1 (stereo not shown) [compound 2]
Viscosity mPa.s at 23°C [4]: 4.2 mPa.s | Solubility of carbonates in water [5]: 21 g carbonate per l water | Boiling point °C at 101.3 kPa [6]: >180 °C

CC(=O)OCC1COC(=O)O1 (stereo not shown) [compound 3]
Viscosity mPa.s at 23°C [4]: 59.1 mPa.s | Solubility of carbonates in water [5]: 72 g carbonate per l water | Boiling point °C at 101.3 kPa [6]: >180 °C

CO/C=C(/C(=O)OC)c1ccccc1Oc1cc(Oc2ccccc2C#N)ncn1 [pesticide 2, azoxystrobin, reference compound]
% leaf surface infested with mildew - average value of 15 leaves [3, 10]: 38.7% | Effect [%] [3, 10]: 100% | Solubility in H2O (data from literature*) [2]: 6.7 mg/l at 20 °C

COC(=O)N(OC)c1ccccc1COc1ccn(-c2ccc(Cl)cc2)n1 [pesticide 3, pyraclostrobin]
Solubility in H2O (data from literature*) [2]: 1.9 mg/l at 20 °C

CC(C)(C)C(O)(CCc1ccc(Cl)cc1)Cn1cncn1 (stereo not shown) [pesticide 5, tebuconazole]
Solubility in H2O (data from literature*) [2]: 29 mg/l at 20 °C

CC(O)(Cn1cncn1)c1ccc(Oc2ccc(Cl)cc2)cc1C(F)(F)F (stereo not shown) [pesticide 7, mefentrifluconazole]
Solubility in H2O (data from literature*) [2]: 0.81 mg/l at 20 °C

Cn1cc(C(=O)Nc2ccccc2-c2cc(F)c(F)c(F)c2)c(C(F)F)n1 [pesticide 8, fluxapyroxad]
Solubility in H2O (data from literature*) [2]: 3.88 mg/l at 20 °C

CC(Cc1ccc(C(C)(C)C)cc1)CN1C[C@@H](C)O[C@@H](C)C1 (stereo partly shown) [pesticide 9, fenpropimorph]
Solubility in H2O (data from literature*) [2]: 4.3mg/l at 20 °C

CC1COC(=O)O1 (stereo not shown) [propylene carbonate, reference compound]
water solubility ([5]; comparison value for propylene carbonate, source not stated): 175 mg/mL (≈ 1710 mM)
